The nature of assay [1]: Cytotoxicity against human H357 cells assessed as reduction in cell viability incubated for 48 hrs by MTT assay. Type of assay: functional, cell-based. (In general: Tetrazolium dyes change colour on reduction, which living cells bring about.)
The test system of assay [2] is HEK-293T. The assay is described as follows: Cytotoxicity against human HEK293T cells assessed as reduction in cell viability incubated for 48 hrs by MTT assay. The assay is classed as cell-based.
The test system of assay [3] is MCF7. The assay is described as follows: Cytotoxicity against human MCF7 cells assessed as reduction in cell viability incubated for 48 hrs by MTT assay. The assay is classed as functional, cell-based.
The test system of assay [4] is MDA-MB-231. The assay is described as follows: Cytotoxicity against human MDA-MB-231 cells assessed as reduction in cell viability incubated for 48 hrs by MTT assay. The assay is classed as functional, cell-based.
For assay [5], the target named is DNA topoisomerase 2-alpha (Homo sapiens) (UniProt P11388). The assay is described as follows: Inhibition of human topoisomerase 2alpha assessed as reduction in decatenation of kinetoplast DNA by agarose gel electrophoresis method.
Setting [6] is: Homo sapiens, H357, 48 h, read-out: IC50.
The mark [7] stands for this setting: Homo sapiens, MCF7, 48 h, read-out: IC50.
Setting [8] is: Homo sapiens, MDA-MB-231, 48 h, read-out: IC50.

Activity calls are given as the source filed them. The calls are words filed in the database; no cut-off is given here.

The values that follow come from ChEMBL document CHEMBL4808219, “Exploration of Benzo[b]carbazole-6,11-diones as anticancer agents: Synthesis and studies of hTopoIIα inhibition and apoptotic effects” (Bioorg Med Chem Lett, 2021).

DNA topoisomerase 2-alpha (Homo sapiens), sequence (P11388 whole entry): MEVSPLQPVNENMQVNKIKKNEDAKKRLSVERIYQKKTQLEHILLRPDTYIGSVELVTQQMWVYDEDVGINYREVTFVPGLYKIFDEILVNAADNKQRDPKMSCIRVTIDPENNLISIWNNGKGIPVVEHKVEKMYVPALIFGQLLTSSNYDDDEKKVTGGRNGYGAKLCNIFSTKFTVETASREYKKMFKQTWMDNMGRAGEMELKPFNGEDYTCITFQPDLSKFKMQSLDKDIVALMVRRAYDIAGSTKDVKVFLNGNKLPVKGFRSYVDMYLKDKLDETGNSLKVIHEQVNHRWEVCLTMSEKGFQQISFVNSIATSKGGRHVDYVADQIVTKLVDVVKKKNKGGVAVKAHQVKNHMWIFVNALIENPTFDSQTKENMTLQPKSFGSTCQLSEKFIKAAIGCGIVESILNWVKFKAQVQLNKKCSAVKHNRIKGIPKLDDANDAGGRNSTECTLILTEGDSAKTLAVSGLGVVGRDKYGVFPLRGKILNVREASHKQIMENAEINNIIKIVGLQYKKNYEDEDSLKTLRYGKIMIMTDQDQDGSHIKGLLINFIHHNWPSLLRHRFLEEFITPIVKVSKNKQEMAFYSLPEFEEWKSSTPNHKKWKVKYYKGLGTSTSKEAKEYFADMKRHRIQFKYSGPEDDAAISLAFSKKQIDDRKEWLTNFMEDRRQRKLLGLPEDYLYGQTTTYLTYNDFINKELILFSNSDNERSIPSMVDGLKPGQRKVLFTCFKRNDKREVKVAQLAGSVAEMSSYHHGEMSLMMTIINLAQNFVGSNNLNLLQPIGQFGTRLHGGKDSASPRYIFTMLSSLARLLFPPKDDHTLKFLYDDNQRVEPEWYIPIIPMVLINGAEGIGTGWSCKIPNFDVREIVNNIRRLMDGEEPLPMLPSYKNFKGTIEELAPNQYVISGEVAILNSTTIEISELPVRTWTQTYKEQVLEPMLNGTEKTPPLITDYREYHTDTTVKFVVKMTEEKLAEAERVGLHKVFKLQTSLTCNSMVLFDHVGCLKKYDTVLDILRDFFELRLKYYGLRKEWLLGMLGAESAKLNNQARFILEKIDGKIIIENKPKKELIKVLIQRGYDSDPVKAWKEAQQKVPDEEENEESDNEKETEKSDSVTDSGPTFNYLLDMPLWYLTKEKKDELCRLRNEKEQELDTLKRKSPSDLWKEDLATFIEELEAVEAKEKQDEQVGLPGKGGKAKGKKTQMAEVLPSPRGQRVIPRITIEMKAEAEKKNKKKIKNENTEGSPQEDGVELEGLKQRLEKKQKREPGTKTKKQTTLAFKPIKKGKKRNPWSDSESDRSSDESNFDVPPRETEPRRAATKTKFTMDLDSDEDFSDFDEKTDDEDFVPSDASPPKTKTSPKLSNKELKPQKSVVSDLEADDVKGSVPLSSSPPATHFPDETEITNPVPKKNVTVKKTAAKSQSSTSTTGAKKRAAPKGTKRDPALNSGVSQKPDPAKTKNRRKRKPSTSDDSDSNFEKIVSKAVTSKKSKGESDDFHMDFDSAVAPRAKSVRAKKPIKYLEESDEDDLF

Take `COc1cc2[nH]c3c(c2cc1OC)C(=O)c1ccccc1C3=O`: the half-inhibitory concentration (IC50) – broadly, the point on the concentration scale where inhibition reaches its midpoint – in assay [1] (setting [6]) was found to be 8.7 µM; in assay [2] it was 10.2 µM; in assay [3] (setting [7]), 8.4 µM; in assay [4] (setting [8]), 7.4 µM.
For `Cn1c2c(c3ccccc31)C(=O)c1ccccc1C2=O`, the IC50 worked out at 7.3 µM in assay [1] (setting [6]), 8.4 µM in assay [2], 5.4 µM in assay [3] (setting [7]) and 6.5 µM in assay [4] (setting [8]). Besides, the inhibition entry in assay [5] was “Active”.
In the case of `O=C1C=C(NCCCO)C(=O)c2ccccc21`, the concentration for half-maximal inhibition (IC50) is 9.9 µM in assay [1] (setting [6]), 10.3 µM in assay [2], 9.6 µM in assay [3] (setting [7]) and 9.8 µM in assay [4] (setting [8]).
For `O=C1C(Nc2ccccc2)=CC(=O)c2c(O)cccc21`, the IC50 was 4.9 µM in assay [1] (setting [6]), 4.2 µM in assay [2], 3.8 µM in assay [3] (setting [7]) and 3.7 µM in assay [4] (setting [8]).
Take `O=C1c2ccccc2C(=O)c2c1[nH]c1cc(F)c(F)cc21`: the half-inhibitory concentration (IC50) result in assay [1] (h357), in assay [3] (mcf7) and in assay [4] (mda-mb-231) was “Not Active” in each case.
Consider `O=C1c2ccccc2C(=O)c2c1[nH]c1cc(Cl)ccc21`, for which the IC50 in assay [1] (setting [6]) turned out to be 6.5 µM; in assay [2], 7.3 µM; in assay [3] (setting [7]), 4.4 µM; in assay [4] (setting [8]), 5.5 µM. Also, the inhibition entry in assay [5] is “Active”.
On to `Cc1ccc(NC2=CC(=O)c3ccccc3C2=O)cc1`, for which the IC50 in assay [1] (setting [6]) came to 5.2 µM; in assay [2] it was 5.6 µM; in assay [3] (setting [7]) it was 6.4 µM; in assay [4] (setting [8]) it was 5.3 µM. In assay [5], the inhibition entry was “Active”.
For `Cc1ccc2[nH]c3c(c2c1)C(=O)c1ccccc1C3=O`, in that order: 6.1 µM, 8 µM, 5.2 µM, 4.9 µM and “Active”.
Regarding `O=C1c2ccccc2C(=O)c2c1[nH]c1ccccc21` [BENZOCARBAZOLEDIONE], the IC50 was 5 µM in assay [1] (setting [6]), 5.8 µM in assay [2], 4.5 µM in assay [3] (setting [7]) and 5.2 µM in assay [4] (setting [8]).
`COc1cc(NC2=CC(=O)c3c(O)cccc3C2=O)cc(OC)c1OC`: the 50% inhibitory concentration (IC50) result in assay [1] (h357), in assay [3] (mcf7) and in assay [4] (mda-mb-231) was “Not Active” in each case.
With `O=C1C=C(Nc2nccs2)C(=O)c2ccccc21`, the IC50 in assay [1] (setting [6]) is 7.2 µM; in assay [2], 7.6 µM; in assay [3] (setting [7]), 6.4 µM; in assay [4] (setting [8]) it was 6.3 µM.
For the molecule `COc1cc2[nH]c3c(c2c(OC)c1OC)C(=O)c1c(OC)cccc1C3=O`, the IC50 entry in assay [1] (h357), in assay [3] (mcf7) and in assay [4] (mda-mb-231) was “Not Active” in each case.
`O=C1C=C(Nc2cnccn2)C(=O)c2ccccc21`: the 50% inhibitory concentration (IC50) in assay [1] (setting [6]) came to 8.1 µM; in assay [2], 9 µM; in assay [3] (setting [7]), 7.2 µM; in assay [4] (setting [8]) it was 7 µM.
Taken in the same sequence, the figures for `CCC(C)c1ccc(NC2=CC(=O)c3ccccc3C2=O)cc1` (stereo unspecified) were 4 µM, 5.2 µM, 4.2 µM and 4.2 µM.
With `O=C1C=C(Nc2ccc3c(c2)OCO3)C(=O)c2ccccc21`, the IC50 came to 10.4 µM in assay [1] (setting [6]), 10.2 µM in assay [2], 9.6 µM in assay [3] (setting [7]) and 9.4 µM in assay [4] (setting [8]).
Consider `O=C1C=C(Nc2ccc(Cl)cc2)C(=O)c2ccccc21`, for which the IC50 stood at 4.8 µM in assay [1] (setting [6]), 4.9 µM in assay [2], 4.1 µM in assay [3] (setting [7]) and 3.9 µM in assay [4] (setting [8]).
For `O=C1C=C(Nc2ccccc2)C(=O)c2ccccc21`, in that order: 4.2 µM, 5.6 µM, 4.4 µM and 5.3 µM.
For `Cc1ccc(NC2=CC(=O)c3ccccc3C2=O)cc1C`, in that order: 6.4 µM, 7.7 µM, 5.3 µM and 5.9 µM.
Consider `CN(C)CCCNC1=CC(=O)c2ccccc2C1=O`, for which the half-inhibitory concentration (IC50) is 7.3 µM in assay [1] (setting [6]), 8.1 µM in assay [2], 6.3 µM in assay [3] (setting [7]) and 6.4 µM in assay [4] (setting [8]).
Taken in the same sequence, the figures for `Cc1cc2[nH]c3c(c2cc1C)C(=O)c1ccccc1C3=O` were 6.1 µM, 7 µM, 4.2 µM and 6.3 µM.
With `O=C1c2ccccc2C(=O)c2c1[nH]c1ccc(F)cc21`, the half-inhibitory concentration (IC50) is 5.6 µM in assay [1] (setting [6]), 7.5 µM in assay [2], 4.7 µM in assay [3] (setting [7]) and 4.8 µM in assay [4] (setting [8]). The inhibition result in assay [5] is “Active”.
Regarding `O=C1C=C(Nc2ccc(F)cc2)C(=O)c2ccccc21`, the IC50 in assay [1] (setting [6]) was 3.8 µM; in assay [2], 5.2 µM; in assay [3] (setting [7]), 4.1 µM; in assay [4] (setting [8]) it was 4.9 µM.
In the case of `COc1ccc2[nH]c3c(c2c1)C(=O)c1ccccc1C3=O`, the IC50 in assay [1] (setting [6]) stood at 9.6 µM; in assay [2], 10.5 µM; in assay [3] (setting [7]), 8 µM; in assay [4] (setting [8]), 8.7 µM.
For `COc1cccc2c1C(=O)C=C(Nc1ccccc1)C2=O`, the IC50 came out at 6.4 µM in assay [1] (setting [6]), 7.7 µM in assay [2], 6 µM in assay [3] (setting [7]) and 6.2 µM in assay [4] (setting [8]).
On to `O=C1C=C(Nc2cccc(Cl)c2)C(=O)c2ccccc21`, for which the IC50 was determined as 4 µM in assay [1] (setting [6]), 5.2 µM in assay [2], 4.2 µM in assay [3] (setting [7]) and 4.1 µM in assay [4] (setting [8]).
On to `COc1cc2[nH]c3c(c2c(OC)c1OC)C(=O)c1c(O)cccc1C3=O`, for which the IC50 result in assay [1] (h357), in assay [3] (mcf7) and in assay [4] (mda-mb-231) was “Not Active” throughout.
In the case of `COc1cc(NC2=CC(=O)c3c(OC)cccc3C2=O)cc(OC)c1OC`, the concentration for half-maximal inhibition (IC50) entry in assay [1] (h357), in assay [3] (mcf7) and in assay [4] (mda-mb-231) was “Not Active” each time.
For the molecule `COc1ccc2c3c([nH]c2c1)C(=O)c1ccccc1C3=O`, the IC50 in assay [1] (setting [6]) was determined as 7.9 µM; in assay [2], 9.8 µM; in assay [3] (setting [7]), 7 µM; in assay [4] (setting [8]) it was 7.5 µM.
For `COc1cccc2c1C(=O)c1c([nH]c3ccccc13)C2=O`, in that order: 10.5 µM, 10.4 µM, 9.8 µM and 8.9 µM.
Taken in the same sequence, the figures for `COc1cc(NC2=CC(=O)c3ccccc3C2=O)cc(OC)c1OC` were 6.8 µM, 8.4 µM, 7 µM and 6.9 µM.
Taken in the same sequence, the figures for `O=C1C=C(NCCCN2CCOCC2)C(=O)c2ccccc21` were 6.9 µM, 7.2 µM, 6.2 µM and 6.4 µM.
As for `O=C1C=C(Nc2ccc(F)c(F)c2)C(=O)c2ccccc21`, the IC50 in assay [1] (setting [6]) was determined as 8.4 µM; in assay [2] it was 9.4 µM; in assay [3] (setting [7]), 7.2 µM; in assay [4] (setting [8]), 7 µM.
Taken in the same sequence, the figures for `CN1CCN(CCCNC2=CC(=O)c3ccccc3C2=O)CC1` were 10.9 µM, 10.9 µM, 10.4 µM and 10 µM.
As for `COc1ccc(NC2=CC(=O)c3ccccc3C2=O)cc1`, the concentration for half-maximal inhibition (IC50) in assay [1] (setting [6]) turned out to be 4.6 µM; in assay [2] it was 5.5 µM; in assay [3] (setting [7]) it was 4.5 µM; in assay [4] (setting [8]), 4.8 µM.
